The first data set has as its target T1, human RXFP1 (Homo sapiens, UniProt Q9HBX9).
T1 construct: expressed in transfected cells
T1 sequence (Q9HBX9 1-757): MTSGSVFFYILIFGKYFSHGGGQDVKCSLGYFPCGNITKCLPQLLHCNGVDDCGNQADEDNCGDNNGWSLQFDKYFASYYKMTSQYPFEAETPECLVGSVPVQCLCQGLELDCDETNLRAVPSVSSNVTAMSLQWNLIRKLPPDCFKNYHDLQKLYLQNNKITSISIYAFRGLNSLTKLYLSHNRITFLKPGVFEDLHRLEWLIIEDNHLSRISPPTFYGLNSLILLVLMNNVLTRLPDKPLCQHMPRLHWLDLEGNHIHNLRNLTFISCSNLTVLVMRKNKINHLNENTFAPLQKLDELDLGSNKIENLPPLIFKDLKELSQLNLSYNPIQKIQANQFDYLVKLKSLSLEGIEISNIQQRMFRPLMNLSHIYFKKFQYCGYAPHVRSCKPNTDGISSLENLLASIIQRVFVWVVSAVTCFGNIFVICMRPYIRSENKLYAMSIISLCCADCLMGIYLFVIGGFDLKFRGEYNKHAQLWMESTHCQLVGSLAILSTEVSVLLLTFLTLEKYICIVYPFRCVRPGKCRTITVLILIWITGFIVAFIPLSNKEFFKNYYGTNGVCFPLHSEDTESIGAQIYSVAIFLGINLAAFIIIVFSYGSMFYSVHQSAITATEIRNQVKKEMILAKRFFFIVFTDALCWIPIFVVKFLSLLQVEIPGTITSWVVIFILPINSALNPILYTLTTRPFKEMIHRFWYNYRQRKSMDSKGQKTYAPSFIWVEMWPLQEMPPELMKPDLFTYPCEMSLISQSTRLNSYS
Kind of data set: hRXFP1 HEK293 cAMP assay (HTRF). In kind it is cell-based. The note with it: HEK293 cells stably expressing human RXFP1; phenylcyclobutane examples. As for the experimental part: RXFP1 Cyclic Adenosine Monophosphate (cAMP) Assays. Human embryonic kidney cells 293 (HEK293) cells and HEK293 cells stably expressing human RXFP1, were cultured in MEM medium supplemented with 10% qualified FBS, and 300 μg/ml hygromycin (Life Technologies). Cells were dissociated and suspended in assay buffer. The assay buffer was HBSS buffer (with calcium and magnesium) containing 20 mM HEPES, 0.05% BSA, and 0.5 mM IBMX. Cells (3000 cells per well, except 1500 cell per well for HEK293 cells stably expressing human RXFP1) were added to 384-well Proxiplates (Perkin-Elmer). Cells were immediately treated with test compounds in DMSO (2% final) at final concentrations in the range of 0.010 nM to 50 μM. Cells were incubated for 30 min at room temperature. The level of intracellular cAMP was determined using the HTRF HiRange cAMP assay reagent kit (Cisbio) according to manufacturer's instructions. Solutions of cryptate conjugated anti-cAMP and d2 fluorophore-labelled cAMP were made in a supplied lysis buffer separately. Upon completion of the reaction, the cells were lysed with equal volume of the d2-cAMP solution and anti-cAMP solution. After a 1 h room temperature incubation, time-resolved fluorescence intensity was measured using the Envision (Perkin-Elmer) at 400 nm excitation and dual emission at 590 nm and 665 nm. A calibration curve was constructed with an external cAMP standard at concentrations ranging from 2.7 μM to 0.1 μM by plotting the fluorescent intensity ratio from 665 nm emission to the intensity from the 590 nm emission against cAMP concentrations. The potency and activity of a compound to […] cAMP production was then determined by fitting to a 4-parametric logistic equation from a plot of cAMP level versus compound concentrations.
The examples disclosed below were tested in the human RXFP1 (hRXFP1) HEK293 cAMP assay described above and found to have agonist activity. Tables 1-3, lists EC50 values in the hRXFP1 HEK293 cAMP assay measured for the examples.
The molecule `COc1ccc(-c2cc(C(=O)O)ccc2F)cc1C(=O)Nc1cc2c(cc1C(=O)Nc1ccc(F)c(C(F)(F)F)c1)CC2` [Example 21] yielded an EC50 of 2400 nM.
Same read-out and setting: in the case of `COc1ccc(-c2cc(C(NC(=O)C3CCOCC3)C(=O)O)ccc2F)cc1C(=O)Nc1cc2c(cc1C(=O)Nc1ccc(F)c(C(F)(F)F)c1)CC2` (stereo not drawn) [Example 22, 2-(6-fluoro-3′-((4-((4-fluoro-3-(trifluoromethyl)phenyl)carbamoyl)bicyclo[4.2.0]octa-1,3,5-trien-3-yl)carbamoyl)-4′-methoxy-[1,1′-biphenyl]-3-yl)-2-(tetrahydro-2H-pyran-4-carboxamido)acetic acid] it was 8 nM; in that of `COc1ccc(-c2cc(C(O)C(=O)O)ccc2F)cc1C(=O)Nc1cc2c(cc1C(=O)Nc1ccc(F)c(C(F)(F)F)c1)CC2` (stereo not drawn) [Example 23, 2-(6-fluoro-3′-((4-((4-fluoro-3-(trifluoromethyl)phenyl)carbamoyl)bicyclo[4.2.0]octa-1,3,5-trien-3-yl)carbamoyl)-4′-methoxy-[1,1′-biphenyl]-3-yl)-2-hydroxyacetic acid], 660 nM.

Still in this data set, the particulars now being: HEK293 cells stably expressing human RXFP1; phenylcyclohexyl (tetraline) examples.
As for `COc1ccc(-c2noc(CCO)c2CCO)cc1C(=O)Nc1cc2c(cc1C(=O)Nc1ccc(F)c(C(F)(F)F)c1)CCCC2` [Example 16, 3-(5-(4,5-bis(2-hydroxyethyl)isoxazol-3-yl)-2-methoxybenzamido)-N-(4-fluoro-3-(trifluoromethyl)phenyl)-5,6,7,8-tetrahydronaphthalene-2-carboxamide], the EC50 turned out to be 5000 nM.
`COc1ccc(-c2cc([C@H](OC(=O)NC3CCC3)C(F)(F)F)ccc2F)cc1C(=O)Nc1cc2c(cc1C(=O)Nc1ccc(F)c(C(F)(F)F)c1)CCCC2=O` [Example 17, (S)-2,2,2-trifluoro-1-(6-fluoro-3′-((3-(4-fluoro-3-(trifluoromethyl)phenyl)carbamoyl)-8-oxo-5,6,7,8-tetrahydronaphthalen-2-yl)carbamoyl)-4′-methoxy-[1,1′-biphenyl]-3-yl)ethyl cyclobutylcarbamate] showed an EC50 of 22 nM.
Same read-out and setting: for `COc1ccc(-c2cc(C(=O)O)ccc2F)cc1C(=O)Nc1cc2c(cc1C(=O)Nc1ccc(F)c(C(F)(F)F)c1)CCCC2=O` [Example 18, 6-fluoro-3′-((3-((4-fluoro-3-(trifluoromethyl)phenyl)carbamoyl)-8-oxo-5,6,7,8-tetrahydronaphthalen-2-yl)carbamoyl)-4′-methoxy-[1,1′-biphenyl]-3-carboxylic acid] the value was 1100 nM.
Still for that read-out and setting: in the case of `COc1ccc(-c2cnn(CC(=O)O)c2)cc1C(=O)Nc1cc2c(cc1C(=O)Nc1ccc(F)c(C(F)(F)F)c1)CCCC2` [Example 19, 2-(4-(3-((3-((4-fluoro-3-(trifluoromethyl)phenyl)carbamoyl)-5,6,7,8-tetrahydronaphthalen-2-yl)carbamoyl)-4-methoxyphenyl)-1H-pyrazol-1-yl)acetic acid] it was 1300 nM; in that of `COc1ccc(N2CCCS2(=O)=O)cc1C(=O)Nc1cc2c(cc1C(=O)Nc1ccc(F)c(C(F)(F)F)c1)CCCC2` [Example 20, 3-(5-(1,1-dioxidoisothiazolidin-2-yl)-2-methoxybenzamido)-N-(4-fluoro-3-(trifluoromethyl)-phenyl)-5,6,7,8-tetrahydronaphthalene-2-carboxamide], 2200 nM.

The data set is the same for the next values; noted with them: HEK293 cells stably expressing human RXFP1; phenylcyclopentyl examples.
The molecule `COc1ccc(-c2cc(C(=O)O)ccc2F)cc1C(=O)Nc1cc2c(cc1C(=O)Nc1ccc(F)c(C(F)(F)F)c1)CCC2` [Example 24, 6-fluoro-3′-((6-((4-fluoro-3-(trifluoromethyl)phenyl)carbamoyl)-2,3-dihydro-1H-inden-5-yl)carbamoyl)-4′-methoxy-[1,1′-biphenyl]-3-carboxylic acid] had an EC50 of 3440 nM.
Still for that read-out and setting: for `COc1ccc(-c2cc(C(NC(=O)C3CCOCC3)C(=O)O)ccc2F)cc1C(=O)Nc1cc2c(cc1C(=O)Nc1ccc(F)c(C(F)(F)F)c1)CCC2` (stereo not drawn) [Example 25, 2-(6-fluoro-3′-((6-((4-fluoro-3-(trifluoromethyl)phenyl)carbamoyl)-2,3-dihydro-1H-inden-5-yl)carbamoyl)-4′-methoxy-[1,1′-biphenyl]-3-yl)-2-(tetrahydro-2H-pyran-4-carboxamido)acetic acid] the value was 11 nM; for `COc1ccc(-c2cc(C(=O)O)ccc2F)cc1C(=O)Nc1cc2c(cc1C(=O)Nc1ccc(F)c(C(F)(F)F)c1)CCC2=O` [Example 26, 6-fluoro-3′-((6-((4-fluoro-3-(trifluoromethyl)phenyl)carbamoyl)-3-oxo-2,3-dihydro-1H-inden-5-yl)carbamoyl)-4′-methoxy-[1,1′-biphenyl]-3-carboxylic acid], 230 nM.

Test system in the next data set: not given
Assay: not given
Conditions: intravenous (IV) formulation; cited from earlier work.
Serelaxin: the first-phase pharmacokinetic half-life was 5.4 min.

The EC50 is the concentration needed to bring the measured effect to its halfway point.

These data come from patent US20260265208A1, “TETRALINE, PHENYLCYCLOBUTANE AND PHENYLCYCLOPENTANE ANALOGS AS RXFP1 AGONISTS” (BRISTOL-MYERS SQUIBB COMPANY, priority 2021, published 2026).
